Measured values from patent publication US8012957B2, “Tetrahydro-1H-1,2,6-triaza-azulene cannabinoid modulators” (Janssen Pharmaceutica NV, priority 2006, dated 2011).

Tests used:
cannabinoid CB1 receptor = target: T1, cannabinoid CB1 receptor (Homo sapiens, UniProt P21554); experiment: Binding assay for CB1, [3H]-CP-55,940 displacement on membranes of transfected SK-N-MC cells; conditions: for inhibition at 0.2 µM: test concentration of 0.2 μM, read-out: Cannabinoid CB 1 Receptor Binding Inhibition (%); for IC50: radioligand [3H]-CP-55,940 0.2 nM, calculated by linear regression
T1 construct: expressed in transfected cells; host or cells: SK-N-MC cells, pcDNA3 CB-1 (human), semi-purified membrane pellet
Method: (§1) Binding Assay for CB1 or CB2 Agonists or Inverse Agonists
(§2) The human CB1 and CB2 receptors were stably expressed in SK-N-MC cells transfected with pcDNA3 CB-1 (human) or pcDNA3 CB-2 (human). The cells were grown in T-180 cell culture flasks under standard cell culture conditions at 37° C. in a 5% CO2 atmosphere. The cells were harvested by trysinization and homogenized in a homogenization buffer (10 mM Tris, 0.2 mM MgCl2, 5 mM KCl, with protease inhibitors aprotinin, leupeptin, pepstatin A and bacitracin) and centrifuged (2000 g). The supernatant was then centrifuged in 2M sucrose (31,300 g) to produce a semi-purified membrane pellet. The pellet was resuspended in homogenization and stored at −80° C.
(§3) On the day of the assay, the pellet was thawed on ice and diluted in assay buffer (50 mM Tris-HCl, 5 mM MgCl2, 2.5 mM EDTA, 0.5 mg/mL fatty acid free bovine serum albumin, pH 7.5). The diluted membrane pellet was added with buffer, either a test compound or vehicle standard and a the radioligand [H]^3+-CP-55,940 (0.2 nM) to the wells of a 96-well polypropylene plate. Non-specific binding was measured in wells containing WIN 55,212 (10 uM). The plate was covered and incubated for 90 minutes at 30° C. The contents were then aspirated onto a Packard Unifilter GF/C filter bottom plate prewet with 0.5% polyethyleneimine. The wells of the polypropylene plate were rinsed and aspirated seven times with a 0.9% saline-0.5% Tween 20 solution. The Unifilter plate was dried, a scintillation cocktail was added to each well and the counts representing binding were quantitated in a TopCount scintillation counter.
(§4) For compounds tested, an IC50 binding value was obtained from percent inhibition studies in which various test concentrations were used. The binding value (in μM) was calculated by linear regression.
(§5) For those compounds without an IC50 binding value, the percent inhibition (%) was obtained at a test concentration of 0.2 μM.

cannabinoid CB2 receptor = target: T2, cannabinoid CB2 receptor (Homo sapiens, UniProt P34972); experiment: Binding assay for CB2, [3H]-CP-55,940 displacement on membranes of transfected SK-N-MC cells; conditions: test concentration of 0.2 μM
T2 construct: expressed in transfected cells; host or cells: SK-N-MC cells, pcDNA3 CB-2 (human), semi-purified membrane pellet
Method: as §1, §2, §3, §4, §5

T1 sequence (P21554 whole entry): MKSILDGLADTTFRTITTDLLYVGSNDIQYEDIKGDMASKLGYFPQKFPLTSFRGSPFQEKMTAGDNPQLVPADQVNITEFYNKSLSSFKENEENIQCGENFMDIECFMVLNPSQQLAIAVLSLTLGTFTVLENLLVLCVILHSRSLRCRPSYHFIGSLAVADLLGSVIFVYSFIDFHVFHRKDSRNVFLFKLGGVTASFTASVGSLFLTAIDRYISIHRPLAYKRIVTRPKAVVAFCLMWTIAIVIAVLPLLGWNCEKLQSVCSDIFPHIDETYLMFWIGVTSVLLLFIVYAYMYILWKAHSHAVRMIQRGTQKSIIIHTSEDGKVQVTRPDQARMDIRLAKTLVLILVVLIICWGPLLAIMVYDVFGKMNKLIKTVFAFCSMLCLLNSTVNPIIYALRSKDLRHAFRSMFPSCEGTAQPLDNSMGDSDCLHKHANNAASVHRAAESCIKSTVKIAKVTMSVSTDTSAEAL
T2 sequence (P34972 whole entry): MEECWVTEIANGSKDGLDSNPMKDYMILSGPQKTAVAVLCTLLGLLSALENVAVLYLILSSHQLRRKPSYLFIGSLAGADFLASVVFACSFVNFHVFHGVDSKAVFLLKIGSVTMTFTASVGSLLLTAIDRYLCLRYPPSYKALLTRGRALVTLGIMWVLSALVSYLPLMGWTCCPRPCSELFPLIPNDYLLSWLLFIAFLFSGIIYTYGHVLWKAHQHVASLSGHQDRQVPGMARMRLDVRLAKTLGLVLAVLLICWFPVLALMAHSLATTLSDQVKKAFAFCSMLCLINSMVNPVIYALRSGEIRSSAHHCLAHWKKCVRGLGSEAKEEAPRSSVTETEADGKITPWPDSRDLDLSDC

Row | Structure (SMILES) | inhibition at 0.2 µM (cannabinoid CB1 receptor) [%] | inhibition at 0.2 µM (cannabinoid CB2 receptor) [%] | IC50 (cannabinoid CB1 receptor) [µM]
1 | CC(C)(C)OC(=O)N1CCc2c(C(=O)N3CCCCC3)nn(-c3ccc(Cl)cc3Cl)c2/C(=C/c2ccc(F)cc2)C1 [Cpd 1, (8E)-1-(2,4-dichloro-phenyl)-8-(4-fluoro-benzylidene)-3-(piperidine-1-carbonyl)-4,5,7,8-tetrahydro-1 H-1,2,6-triaza-azulene-6-carboxylic acid tert-butyl ester] | 27 | 6 | 
2 | CC(C)(C)OC(=O)N1CCc2c(C(=O)NN3CCCCC3)nn(-c3ccc(Cl)cc3Cl)c2/C(=C/c2ccc(F)cc2)C1 [Cpd 2, (8E)-1-(2,4-dichloro-phenyl)-8-(4-fluoro-benzylidene)-3-(piperidin-1-ylcarbamoyl)-4,5,7,8-tetrahydro-1H-1,2,6-triaza-azulene-6-carboxylic acid tert-butyl ester] | 54 | 15 | 
3 | CC(NC(=O)c1nn(-c2ccc(Cl)cc2Cl)c2c1CCN(C(=O)OC(C)(C)C)C/C2=C\c1ccc(F)cc1)c1ccccc1 (stereo not drawn) [Cpd 3, (8E)-1-(2,4-dichloro-phenyl)-8-(4-fluoro-benzylidene)-3-(1-phenyl-ethylcarbamoyl)-4,5,7,8-tetrahydro-1 H-1,2,6-triaza-azulene-6-carboxylic acid tert-butyl ester] |  | 15 | 0.061
4 | CC(NC(=O)c1nn(-c2ccc(Cl)cc2Cl)c2c1CCN(C(=O)OC(C)(C)C)C/C2=C\c1ccc(F)cc1)c1ccccn1 (stereo not drawn) [Cpd 4, (8E)-1-(2,4-dichloro-phenyl)-8-(4-fluoro-benzylidene)-3-(1-pyridin-2-yl-ethylcarbamoyl)-4,5,7,8-tetrahydro-1 H-1,2,6-triaza-azulene-6-carboxylic acid tert-butyl ester] |  | 14 | 0.05
5 | O=C(c1nn(-c2ccc(Cl)cc2Cl)c2c1CCNC/C2=C\c1ccc(F)cc1)N1CCCCC1 [Cpd 5, (8E)-[1-(2,4-dichloro-phenyl)-8-(4-fluoro-benzylidene)-1,4,5,6,7,8-hexahydro-1,2,6-triaza-azulen-3-yl]-piperidin-1-yl-methanone] | 16 | 10 | 
6 | COC(=O)N1CCc2c(C(=O)NN3CCCCC3)nn(-c3ccc(Cl)cc3Cl)c2/C(=C/c2ccc(F)cc2)C1 [Cpd 6, (8E)-1-(2,4-dichloro-phenyl)-8-(4-fluoro-benzylidene)-3-(piperidin-1-ylcarbamoyl)-4,5,7,8-tetrahydro-1H-1,2,6-triaza-azulene-6-carboxylic acid methyl ester] | 39 | 17 | 
